Reference: ChEMBL document CHEMBL5335856, “Structurally Diverse Alkaloids with Anti-Renal-Fibrosis Activity from the Centipede Scolopendra subspinipes mutilans” (J Nat Prod, 2024)
The source made the active and inactive calls. The rule behind the calls is not given here.

Columns and labels:
NRK-52E [1] = experiment: Anti-renal-fibrosis activity in TGF-beta1 induced Lamp2 knocked down rat NRK-52E cells assessed as downregulation of alpha-SMA expression at 40 uM; assay type: functional, cell-based
[2] = target: Sorting nexin-3 (Homo sapiens) (UniProt O60493); experiment: Binding affinity to Snx3 (unknown origin) assessed as fold change in protein upregulation at 200 uM preincubated for 2 hrs followed by pronase addition and measured after 30 mins by coomassie blue staining based SDS-PAGE gel analysis
Chain of Sorting nexin-3 (Homo sapiens) (O60493 whole entry): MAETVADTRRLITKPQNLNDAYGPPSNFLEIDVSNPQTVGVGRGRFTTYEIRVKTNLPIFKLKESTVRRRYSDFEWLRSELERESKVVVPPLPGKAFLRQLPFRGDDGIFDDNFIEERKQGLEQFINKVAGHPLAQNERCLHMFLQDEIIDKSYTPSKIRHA

NRK-52E [3] = experiment: Anti-renal-fibrosis activity in TGF-beta1 induced rat NRK-52E cells assessed as downregulation of alpha-SMA expression at 40 uM; assay type: functional, cell-based
[4] = target: Rho-related GTP-binding protein RhoB (Homo sapiens) (UniProt P62745); experiment: Binding affinity to RHOB (unknown origin) at 200 uM preincubated for 2 hrs followed by pronase addition and measured after 30 mins by coomassie blue staining based SDS-PAGE gel analysis
Chain of Rho-related GTP-binding protein RhoB (Homo sapiens) (P62745 whole entry): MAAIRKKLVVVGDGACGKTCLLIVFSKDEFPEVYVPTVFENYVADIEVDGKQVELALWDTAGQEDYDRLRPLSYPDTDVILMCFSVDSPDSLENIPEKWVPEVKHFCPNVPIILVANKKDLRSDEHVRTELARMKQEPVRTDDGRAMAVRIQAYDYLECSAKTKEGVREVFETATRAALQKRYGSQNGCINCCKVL

[5] = target: Tyrosine-protein phosphatase non-receptor type 2 (Homo sapiens) (UniProt P17706); experiment: Binding affinity to Ptpn2 (unknown origin) assessed as fold change in protein upregulation at 200 uM preincubated for 2 hrs followed by pronase addition and measured after 30 mins by coomassie blue staining based SDS-PAGE gel analysis
Chain of Tyrosine-protein phosphatase non-receptor type 2 (Homo sapiens) (P17706 whole entry): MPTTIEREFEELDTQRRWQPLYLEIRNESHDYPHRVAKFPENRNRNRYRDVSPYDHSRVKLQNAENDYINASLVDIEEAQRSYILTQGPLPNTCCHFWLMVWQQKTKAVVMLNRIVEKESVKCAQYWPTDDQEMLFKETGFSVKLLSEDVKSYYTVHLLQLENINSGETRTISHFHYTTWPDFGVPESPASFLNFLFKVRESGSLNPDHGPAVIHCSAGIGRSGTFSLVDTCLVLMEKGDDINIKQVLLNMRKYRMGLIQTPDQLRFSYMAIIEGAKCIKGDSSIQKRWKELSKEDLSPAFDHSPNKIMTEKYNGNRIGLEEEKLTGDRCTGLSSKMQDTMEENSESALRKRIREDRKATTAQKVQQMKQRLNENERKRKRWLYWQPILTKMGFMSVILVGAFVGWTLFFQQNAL

[6] = target: FACT complex subunit SPT16 (Homo sapiens) (UniProt Q9Y5B9); experiment: Binding affinity to Supt16h (unknown origin) assessed as fold change in protein upregulation at 200 uM preincubated for 2 hrs followed by pronase addition and measured after 30 mins by coomassie blue staining based SDS-PAGE gel analysis
NRK-52E [7] = experiment: Cytotoxicity against rat NRK-52E cells at 10 to 80 uM incubated for 48 hrs by CCK-8 assay; assay type: toxicity, cell-based; settings: dose 10-80 µM
[8] = target: Cysteine and glycine-rich protein 2 (Homo sapiens) (UniProt Q16527); experiment: Binding affinity to Csrp2 (unknown origin) assessed as fold change in protein upregulation at 200 uM preincubated for 2 hrs followed by pronase addition and measured after 30 mins by coomassie blue staining based SDS-PAGE gel analysis
[9] = target: Prelamin-A/C (Homo sapiens) (UniProt P02545); experiment: Binding affinity to LMNA (unknown origin) assessed as fold change in protein upregulation at 200 uM preincubated for 2 hrs followed by pronase addition and measured after 30 mins by coomassie blue staining based SDS-PAGE gel analysis
[10] = target: Far upstream element-binding protein 2 (Homo sapiens) (UniProt Q92945); experiment: Binding affinity to KHSRP (unknown origin) assessed as fold change in protein upregulation at 200 uM preincubated for 2 hrs followed by pronase addition and measured after 30 mins by coomassie blue staining based SDS-PAGE gel analysis
Chain of Far upstream element-binding protein 2 (Homo sapiens) (Q92945 whole entry): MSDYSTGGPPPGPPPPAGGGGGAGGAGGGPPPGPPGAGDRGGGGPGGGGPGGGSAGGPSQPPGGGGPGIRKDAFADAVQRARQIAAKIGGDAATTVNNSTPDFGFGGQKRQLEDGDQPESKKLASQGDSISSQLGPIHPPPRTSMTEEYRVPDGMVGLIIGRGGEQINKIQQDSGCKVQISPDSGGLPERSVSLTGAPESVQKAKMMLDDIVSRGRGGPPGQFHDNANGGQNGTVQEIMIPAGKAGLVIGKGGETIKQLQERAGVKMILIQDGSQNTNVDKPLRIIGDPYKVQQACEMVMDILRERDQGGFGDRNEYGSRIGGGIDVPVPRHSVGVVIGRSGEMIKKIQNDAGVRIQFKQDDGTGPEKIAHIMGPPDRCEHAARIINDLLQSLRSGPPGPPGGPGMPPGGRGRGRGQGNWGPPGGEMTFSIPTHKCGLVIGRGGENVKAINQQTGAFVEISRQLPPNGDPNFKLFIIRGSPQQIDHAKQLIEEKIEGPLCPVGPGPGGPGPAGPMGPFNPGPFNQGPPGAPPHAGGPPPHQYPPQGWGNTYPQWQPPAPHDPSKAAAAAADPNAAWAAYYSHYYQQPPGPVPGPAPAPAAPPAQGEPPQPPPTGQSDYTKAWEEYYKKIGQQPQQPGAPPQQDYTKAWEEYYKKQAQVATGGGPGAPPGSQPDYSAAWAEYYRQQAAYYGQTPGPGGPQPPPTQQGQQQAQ

[11] = target: Lysosome-associated membrane glycoprotein 2 (Homo sapiens) (UniProt P13473); experiment: Binding affinity to Lamp2 (unknown origin) assessed as fold change in protein upregulation at 200 uM preincubated for 2 hrs followed by pronase addition and measured after 30 mins by coomassie blue staining based SDS-PAGE gel analysis
Chain of Lysosome-associated membrane glycoprotein 2 (Homo sapiens) (P13473 whole entry): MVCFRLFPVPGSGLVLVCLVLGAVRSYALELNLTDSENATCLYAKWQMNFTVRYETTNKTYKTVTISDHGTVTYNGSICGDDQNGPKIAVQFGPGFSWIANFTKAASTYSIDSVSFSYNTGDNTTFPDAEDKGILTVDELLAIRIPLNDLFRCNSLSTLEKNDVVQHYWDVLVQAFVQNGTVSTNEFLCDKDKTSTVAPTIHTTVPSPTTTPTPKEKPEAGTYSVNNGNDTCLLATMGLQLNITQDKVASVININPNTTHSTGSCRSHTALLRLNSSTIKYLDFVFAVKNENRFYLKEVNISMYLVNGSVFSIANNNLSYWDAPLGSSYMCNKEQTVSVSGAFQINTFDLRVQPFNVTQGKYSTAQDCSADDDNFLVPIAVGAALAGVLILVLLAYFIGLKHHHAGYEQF

Septin-5 (Homo sapiens) = Septin-5 (Homo sapiens) (UniProt Q99719); experiment: Binding affinity to Septin5 (unknown origin) assessed as fold change in protein upregulation at 200 uM preincubated for 2 hrs followed by pronase addition and measured after 30 mins by coomassie blue staining based SDS-PAGE gel analysis
Chain of Septin-5 (Homo sapiens) (Q99719 whole entry): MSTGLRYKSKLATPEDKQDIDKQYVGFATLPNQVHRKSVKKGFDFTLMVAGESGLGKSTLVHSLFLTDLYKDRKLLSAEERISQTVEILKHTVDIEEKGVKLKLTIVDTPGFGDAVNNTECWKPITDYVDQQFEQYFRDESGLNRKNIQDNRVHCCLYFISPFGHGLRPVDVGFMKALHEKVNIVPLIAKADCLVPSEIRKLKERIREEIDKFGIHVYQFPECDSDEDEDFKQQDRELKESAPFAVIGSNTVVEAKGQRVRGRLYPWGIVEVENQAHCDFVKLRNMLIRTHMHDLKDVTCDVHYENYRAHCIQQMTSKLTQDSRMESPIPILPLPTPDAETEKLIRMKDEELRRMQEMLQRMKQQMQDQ

NRK-52E [12] = experiment: Anti-renal-fibrosis activity in TGF-beta1 induced rat NRK-52E cells assessed as downregulation of collagen I expression at 40 uM; assay type: functional, cell-based
[13] = target: Serine/threonine-protein kinase TAO3 (Homo sapiens) (UniProt Q9H2K8); experiment: Binding affinity to Taok3 (unknown origin) at 200 uM preincubated for 2 hrs followed by pronase addition and measured after 30 mins by coomassie blue staining based SDS-PAGE gel analysis
[14] = target: Protein YIF1A (Homo sapiens) (UniProt O95070); experiment: Binding affinity to Yif1a (unknown origin) at 200 uM preincubated for 2 hrs followed by pronase addition and measured after 30 mins by coomassie blue staining based SDS-PAGE gel analysis
Lamin-B2 (Homo sapiens) = Lamin-B2 (Homo sapiens) (UniProt Q03252); experiment: Binding affinity to Lmnb2 (unknown origin) assessed as fold change in protein upregulation at 200 uM preincubated for 2 hrs followed by pronase addition and measured after 30 mins by coomassie blue staining based SDS-PAGE gel analysis
[15] = target: Splicing factor 3A subunit 3 (Homo sapiens) (UniProt Q12874); experiment: Binding affinity to Sf3a3 (unknown origin) assessed as fold change in protein upregulation at 200 uM preincubated for 2 hrs followed by pronase addition and measured after 30 mins by coomassie blue staining based SDS-PAGE gel analysis
NRK-52E [16] = experiment: Anti-renal-fibrosis activity in TGF-beta1 induced rat NRK-52E cells assessed as downregulation of collagen I protein level at 20 uM by Western blot analysis; assay type: functional, cell-based
[17] = target: Serine/threonine-protein kinase DCLK1 (Homo sapiens) (UniProt O15075); experiment: Binding affinity to Dclk1 (unknown origin) assessed as fold change in protein upregulation at 200 uM preincubated for 2 hrs followed by pronase addition and measured after 30 mins by coomassie blue staining based SDS-PAGE gel analysis
[18] = target: 2-oxoisovalerate dehydrogenase subunit beta, mitochondrial (Homo sapiens) (UniProt P21953); experiment: Binding affinity to BCKDHB (unknown origin) at 200 uM preincubated for 2 hrs followed by pronase addition and measured after 30 mins by coomassie blue staining based SDS-PAGE gel analysis
Chain of 2-oxoisovalerate dehydrogenase subunit beta, mitochondrial (Homo sapiens) (P21953 whole entry): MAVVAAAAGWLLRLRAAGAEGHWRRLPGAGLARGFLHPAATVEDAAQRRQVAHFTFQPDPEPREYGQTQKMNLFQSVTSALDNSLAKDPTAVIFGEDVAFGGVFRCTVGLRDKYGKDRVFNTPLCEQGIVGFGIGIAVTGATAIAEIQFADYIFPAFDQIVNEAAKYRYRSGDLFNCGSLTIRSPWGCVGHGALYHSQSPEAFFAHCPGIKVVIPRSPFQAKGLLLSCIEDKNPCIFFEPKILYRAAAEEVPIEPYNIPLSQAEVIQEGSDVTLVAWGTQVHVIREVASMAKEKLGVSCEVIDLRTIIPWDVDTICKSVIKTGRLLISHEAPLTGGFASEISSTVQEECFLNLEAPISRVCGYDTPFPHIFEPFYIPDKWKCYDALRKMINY

[19] = target: 10 kDa heat shock protein, mitochondrial (Homo sapiens) (UniProt P61604); experiment: Binding affinity to Hspe1 (unknown origin) assessed as fold change in protein upregulation at 200 uM preincubated for 2 hrs followed by pronase addition and measured after 30 mins by coomassie blue staining based SDS-PAGE gel analysis
Chain of 10 kDa heat shock protein, mitochondrial (Homo sapiens) (P61604 whole entry): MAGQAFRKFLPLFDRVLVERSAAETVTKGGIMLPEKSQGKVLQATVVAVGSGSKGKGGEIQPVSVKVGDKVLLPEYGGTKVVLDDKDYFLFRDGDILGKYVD

[20] = target: SWI/SNF-related matrix-associated actin-dependent regulator of chromatin subfamily D member 2 (Homo sapiens) (UniProt Q92925); experiment: Binding affinity to Smarcd2 (unknown origin) at 200 uM preincubated for 2 hrs followed by pronase addition and measured after 30 mins by coomassie blue staining based SDS-PAGE gel analysis
Chain of SWI/SNF-related matrix-associated actin-dependent regulator of chromatin subfamily D member 2 (Homo sapiens) (Q92925 whole entry): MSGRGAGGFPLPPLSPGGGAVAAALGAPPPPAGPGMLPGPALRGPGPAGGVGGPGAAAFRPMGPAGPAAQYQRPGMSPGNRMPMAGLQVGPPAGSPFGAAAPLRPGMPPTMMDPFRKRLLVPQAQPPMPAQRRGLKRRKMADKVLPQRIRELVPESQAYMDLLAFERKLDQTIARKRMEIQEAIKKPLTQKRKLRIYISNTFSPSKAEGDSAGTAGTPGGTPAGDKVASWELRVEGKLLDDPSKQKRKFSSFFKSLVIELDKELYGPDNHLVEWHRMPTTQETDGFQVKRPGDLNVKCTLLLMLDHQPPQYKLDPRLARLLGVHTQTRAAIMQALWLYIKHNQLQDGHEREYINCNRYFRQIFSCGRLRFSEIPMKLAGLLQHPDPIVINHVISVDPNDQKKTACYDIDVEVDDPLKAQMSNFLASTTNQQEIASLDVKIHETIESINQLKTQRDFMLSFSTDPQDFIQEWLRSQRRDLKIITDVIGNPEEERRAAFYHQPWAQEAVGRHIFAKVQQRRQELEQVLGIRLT

[21] = target: U6 snRNA-associated Sm-like protein LSm8 (Homo sapiens) (UniProt O95777); experiment: Binding affinity to Lsm8 (unknown origin) at 200 uM preincubated for 2 hrs followed by pronase addition and measured after 30 mins by coomassie blue staining based SDS-PAGE gel analysis
Chain of U6 snRNA-associated Sm-like protein LSm8 (Homo sapiens) (O95777 whole entry): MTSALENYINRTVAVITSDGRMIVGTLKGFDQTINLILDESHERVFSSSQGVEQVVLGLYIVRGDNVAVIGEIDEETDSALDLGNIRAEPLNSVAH

Homo sapiens = species on record: Homo sapiens; experiment: Binding affinity to Wdr95 (unknown origin) at 200 uM preincubated for 2 hrs followed by pronase addition and measured after 30 mins by coomassie blue staining based SDS-PAGE gel analysis
[22] = target: Poly(rC)-binding protein 3 (Homo sapiens) (UniProt P57721); experiment: Binding affinity to Pcbp3 (unknown origin) at 200 uM preincubated for 2 hrs followed by pronase addition and measured after 30 mins by coomassie blue staining based SDS-PAGE gel analysis
Chain of Poly(rC)-binding protein 3 (Homo sapiens) (P57721 whole entry): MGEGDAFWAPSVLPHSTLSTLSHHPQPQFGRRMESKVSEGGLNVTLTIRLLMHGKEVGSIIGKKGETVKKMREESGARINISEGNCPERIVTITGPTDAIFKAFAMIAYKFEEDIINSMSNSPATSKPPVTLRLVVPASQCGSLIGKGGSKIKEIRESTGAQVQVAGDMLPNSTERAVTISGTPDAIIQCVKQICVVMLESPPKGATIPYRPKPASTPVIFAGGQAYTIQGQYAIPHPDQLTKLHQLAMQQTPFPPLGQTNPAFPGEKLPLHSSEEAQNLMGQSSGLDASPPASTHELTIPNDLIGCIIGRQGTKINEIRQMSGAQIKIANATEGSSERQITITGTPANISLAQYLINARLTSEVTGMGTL

[23] = target: Nonsense-mediated mRNA decay factor SMG7 (Homo sapiens) (UniProt Q92540); experiment: Binding affinity to Smg7 (unknown origin) at 200 uM preincubated for 2 hrs followed by pronase addition and measured after 30 mins by coomassie blue staining based SDS-PAGE gel analysis
Chain of Nonsense-mediated mRNA decay factor SMG7 (Homo sapiens) (Q92540 whole entry): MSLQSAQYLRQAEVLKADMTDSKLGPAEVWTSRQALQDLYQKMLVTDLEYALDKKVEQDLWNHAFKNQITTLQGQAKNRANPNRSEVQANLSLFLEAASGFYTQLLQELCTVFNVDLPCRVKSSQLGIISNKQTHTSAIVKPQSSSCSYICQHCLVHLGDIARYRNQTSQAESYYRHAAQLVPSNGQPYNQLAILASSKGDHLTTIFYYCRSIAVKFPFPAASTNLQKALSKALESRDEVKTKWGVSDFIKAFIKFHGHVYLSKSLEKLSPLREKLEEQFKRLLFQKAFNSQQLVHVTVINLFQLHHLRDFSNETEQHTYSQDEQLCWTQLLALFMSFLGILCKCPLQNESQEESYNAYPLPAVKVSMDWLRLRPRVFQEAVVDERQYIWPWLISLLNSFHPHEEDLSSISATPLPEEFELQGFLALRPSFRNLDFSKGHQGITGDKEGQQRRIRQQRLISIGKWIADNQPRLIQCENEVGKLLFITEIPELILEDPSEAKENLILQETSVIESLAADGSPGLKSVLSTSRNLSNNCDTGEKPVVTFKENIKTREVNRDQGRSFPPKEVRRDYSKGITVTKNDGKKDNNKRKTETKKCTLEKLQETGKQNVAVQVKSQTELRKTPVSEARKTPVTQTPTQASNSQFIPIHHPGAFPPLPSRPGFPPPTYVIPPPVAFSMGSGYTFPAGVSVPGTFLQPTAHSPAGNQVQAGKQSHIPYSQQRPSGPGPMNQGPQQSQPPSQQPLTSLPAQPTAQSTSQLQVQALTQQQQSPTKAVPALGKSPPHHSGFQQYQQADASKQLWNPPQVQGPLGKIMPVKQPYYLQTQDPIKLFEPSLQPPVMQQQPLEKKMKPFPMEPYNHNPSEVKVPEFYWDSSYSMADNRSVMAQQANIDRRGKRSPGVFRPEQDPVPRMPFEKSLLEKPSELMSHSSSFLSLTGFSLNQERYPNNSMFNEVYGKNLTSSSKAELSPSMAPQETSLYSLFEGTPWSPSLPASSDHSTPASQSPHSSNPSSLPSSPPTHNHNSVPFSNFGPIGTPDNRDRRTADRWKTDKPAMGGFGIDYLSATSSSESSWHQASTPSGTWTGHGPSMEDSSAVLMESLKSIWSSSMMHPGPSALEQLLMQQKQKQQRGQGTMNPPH

NRK-52E [24] = experiment: Anti-renal-fibrosis activity in TGF-beta1 induced rat NRK-52E cells assessed as downregulation of fibronectin protein level at 20 uM by Western blot analysis; assay type: functional, cell-based

fold change (FC) [2]: 1.67 | Activity [4]: Active | fold change (FC) [5]: 1.57 | fold change (FC) [6]: 1.23 | fold change (FC) [8]: 1.29 | fold change (FC) [9]: 1.34 | fold change (FC) [10]: 2.19 | fold change (FC) [11]: 2.42 | fold change (FC) (Septin-5 (Homo sapiens)): 1.48 | Activity [13]: Active | Activity [14]: Active | fold change (FC) (Lamin-B2 (Homo sapiens)): 1.24 | fold change (FC) [15]: 1.8 | fold change (FC) [17]: 2.01 | Activity [18]: Active | fold change (FC) [19]: 1.34 | Activity [20]: Active | Activity [21]: Active | Activity (Homo sapiens): Active | Activity [22]: Active | Activity [23]: Active
SMILES: COc1c(O)nc2c(O)cccc2c1OC
Activity (NRK-52E [1]): inactive | Activity (NRK-52E [3]): Active | Activity (NRK-52E [7]): Non-Toxic | Activity (NRK-52E [12]): Active | Activity (NRK-52E [16]): Active | Activity (NRK-52E [24]): Active
